In the supplement of paper PMC10307832:

Tests used:
Experiment in all cases: relative viability (nuclei count vs DMSO), 5 days (fraction); higher = more cells survive
Sorafenib = compound: CNC(=O)c1cc(Oc2ccc(NC(=O)Nc3ccc(Cl)c(C(F)(F)F)c3)cc2)ccn1 [Sorafenib]
In short: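 A plate was accepted only when its control CV was below 25% and the cells had doubled at least once. Viability is defined from nuclear counts as treated wells divided by vehicle wells, with the median taken across plates. That median covers lung cancer cell lines grown in 1536-well plates, dosed by pinning at five √10-spaced library-drug concentrations, and counted in MetaXpress from 4× Hoechst images after 5 days.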

Sorafenib + Linsitinib = compound: CNC(=O)c1cc(Oc2ccc(NC(=O)Nc3ccc(Cl)c(C(F)(F)F)c3)cc2)ccn1 [Sorafenib] + C[C@]1(O)C[C@@H](c2nc(-c3ccc4ccc(-c5ccccc5)nc4c3)c3c(N)nccn32)C1 [Linsitinib] (partner 1 µM)
In short: (§1)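 Lung cancer cell lines in 1536-well plates got either a single drug or a fixed anchor-drug dose together with five library-drug doses (not always all listed) in √10 steps, by pin tool, on the day after seeding. Nuclei were counted after 5 days, and relative viability is the treated-to-vehicle ratio of nuclei counts. Values are medians of duplicate plates.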

Sorafenib + Tozasertib = compound: CNC(=O)c1cc(Oc2ccc(NC(=O)Nc3ccc(Cl)c(C(F)(F)F)c3)cc2)ccn1 [Sorafenib] + Cc1cc(Nc2cc(N3CCN(C)CC3)nc(Sc3ccc(NC(=O)C4CC4)cc3)n2)n[nH]1 [Tozasertib] (partner 0.1 µM)
In short: as §1

Sorafenib + AZD7762 = compound: CNC(=O)c1cc(Oc2ccc(NC(=O)Nc3ccc(Cl)c(C(F)(F)F)c3)cc2)ccn1 [Sorafenib] + NC(=O)Nc1cc(-c2cccc(F)c2)sc1C(=O)N[C@H]1CCCNC1 [AZD7762] (partner 0.2 µM)
In short: as §1

Sorafenib + OSI-027 = compound: CNC(=O)c1cc(Oc2ccc(NC(=O)Nc3ccc(Cl)c(C(F)(F)F)c3)cc2)ccn1 [Sorafenib] + COc1cccc2cc(-c3nc([C@H]4CC[C@H](C(=O)O)CC4)n4ncnc(N)c34)[nH]c12 [OSI-027] (partner 0.5 µM)
In short: as §1

## NCI-H2405
Sorafenib; 0.08 µM
  relative viability: 1.12
Sorafenib; 0.253 µM
  relative viability: 0.89
Sorafenib; 2.53 µM
  relative viability: 1.06
Sorafenib; 8 µM
  relative viability: 0.74
Sorafenib + Linsitinib; first compound 0.08 µM
  relative viability: 1.1
Sorafenib + Linsitinib; first compound 0.253 µM
  relative viability: 0.907
Sorafenib + Linsitinib; first compound 2.53 µM
  relative viability: 0.715
Sorafenib + Linsitinib; first compound 8 µM
  relative viability: 0.502
Sorafenib + Tozasertib; first compound 0.08 µM
  relative viability: 0.819
Sorafenib + Tozasertib; first compound 0.253 µM
  relative viability: 0.743
Sorafenib + Tozasertib; first compound 2.53 µM
  relative viability: 0.751
Sorafenib + Tozasertib; first compound 8 µM
  relative viability: 0.613
Sorafenib + AZD7762; first compound 0.08 µM
  relative viability: 0.819
Sorafenib + AZD7762; first compound 0.253 µM
  relative viability: 0.597
Sorafenib + AZD7762; first compound 2.53 µM
  relative viability: 0.681
Sorafenib + AZD7762; first compound 8 µM
  relative viability: 0.63
Sorafenib + OSI-027; first compound 0.08 µM
  relative viability: 0.679
Sorafenib + OSI-027; first compound 0.253 µM
  relative viability: 0.662
Sorafenib + OSI-027; first compound 2.53 µM
  relative viability: 0.731
Sorafenib + OSI-027; first compound 8 µM
  relative viability: 0.546

## NCI-H3122
Sorafenib; 0.08 µM
  relative viability: 0.994
Sorafenib; 0.253 µM
  relative viability: 1.01
Sorafenib; 2.53 µM
  relative viability: 0.977
Sorafenib; 8 µM
  relative viability: 0.881
Sorafenib + Linsitinib; first compound 0.08 µM
  relative viability: 1.06
Sorafenib + Linsitinib; first compound 0.253 µM
  relative viability: 1.02
Sorafenib + Linsitinib; first compound 2.53 µM
  relative viability: 1.01
Sorafenib + Linsitinib; first compound 8 µM
  relative viability: 0.828
Sorafenib + Tozasertib; first compound 0.08 µM
  relative viability: 0.44
Sorafenib + Tozasertib; first compound 0.253 µM
  relative viability: 0.363
Sorafenib + Tozasertib; first compound 2.53 µM
  relative viability: 0.363
Sorafenib + Tozasertib; first compound 8 µM
  relative viability: 0.301
Sorafenib + AZD7762; first compound 0.08 µM
  relative viability: 0.905
Sorafenib + AZD7762; first compound 0.253 µM
  relative viability: 0.905
Sorafenib + AZD7762; first compound 2.53 µM
  relative viability: 1.08
Sorafenib + AZD7762; first compound 8 µM
  relative viability: 0.965
Sorafenib + OSI-027; first compound 0.08 µM
  relative viability: 0.99
Sorafenib + OSI-027; first compound 0.253 µM
  relative viability: 0.898
Sorafenib + OSI-027; first compound 2.53 µM
  relative viability: 0.805
Sorafenib + OSI-027; first compound 8 µM
  relative viability: 0.378

## PC-3 [JPC-3]
Sorafenib; 0.08 µM
  relative viability: 1.15
Sorafenib; 0.253 µM
  relative viability: 0.973
Sorafenib; 2.53 µM
  relative viability: 1.09
Sorafenib + Linsitinib; first compound 0.08 µM
  relative viability: 0.951
Sorafenib + Linsitinib; first compound 0.253 µM
  relative viability: 0.981
Sorafenib + Linsitinib; first compound 2.53 µM
  relative viability: 1.01
Sorafenib + Linsitinib; first compound 8 µM
  relative viability: 0.949
Sorafenib + Tozasertib; first compound 0.08 µM
  relative viability: 0.879
Sorafenib + Tozasertib; first compound 0.253 µM
  relative viability: 0.846
Sorafenib + Tozasertib; first compound 2.53 µM
  relative viability: 0.881
Sorafenib + Tozasertib; first compound 8 µM
  relative viability: 0.823
Sorafenib + AZD7762; first compound 0.08 µM
  relative viability: 0.929
Sorafenib + AZD7762; first compound 0.253 µM
  relative viability: 0.711
Sorafenib + AZD7762; first compound 2.53 µM
  relative viability: 1.07
Sorafenib + AZD7762; first compound 8 µM
  relative viability: 0.948
Sorafenib + OSI-027; first compound 0.08 µM
  relative viability: 0.805
Sorafenib + OSI-027; first compound 0.253 µM
  relative viability: 0.722
Sorafenib + OSI-027; first compound 2.53 µM
  relative viability: 0.692
Sorafenib + OSI-027; first compound 8 µM
  relative viability: 0.617

## PC-14
Sorafenib; 0.08 µM
  relative viability: 1.07
Sorafenib; 0.253 µM
  relative viability: 0.928
Sorafenib; 2.53 µM
  relative viability: 1.05
Sorafenib + Linsitinib; first compound 0.08 µM
  relative viability: 1.03
Sorafenib + Linsitinib; first compound 0.253 µM
  relative viability: 0.96
Sorafenib + Linsitinib; first compound 2.53 µM
  relative viability: 0.918
Sorafenib + Linsitinib; first compound 8 µM
  relative viability: 0.756
Sorafenib + Tozasertib; first compound 0.08 µM
  relative viability: 0.588
Sorafenib + Tozasertib; first compound 0.253 µM
  relative viability: 0.555
Sorafenib + Tozasertib; first compound 2.53 µM
  relative viability: 0.593
Sorafenib + Tozasertib; first compound 8 µM
  relative viability: 0.577
Sorafenib + AZD7762; first compound 0.08 µM
  relative viability: 0.365
Sorafenib + AZD7762; first compound 0.253 µM
  relative viability: 0.256
Sorafenib + AZD7762; first compound 2.53 µM
  relative viability: 0.444
Sorafenib + AZD7762; first compound 8 µM
  relative viability: 0.303
Sorafenib + OSI-027; first compound 0.08 µM
  relative viability: 0.96
Sorafenib + OSI-027; first compound 2.53 µM
  relative viability: 0.745
Sorafenib + OSI-027; first compound 8 µM
  relative viability: 0.321

## RERF-LC-KJ
Sorafenib; 0.08 µM
  relative viability: 1.01
Sorafenib; 0.253 µM
  relative viability: 0.903
Sorafenib; 2.53 µM
  relative viability: 0.976
Sorafenib; 8 µM
  relative viability: 0.941
Sorafenib + Linsitinib; first compound 0.08 µM
  relative viability: 0.873
Sorafenib + Linsitinib; first compound 0.253 µM
  relative viability: 0.872
Sorafenib + Linsitinib; first compound 2.53 µM
  relative viability: 0.798
Sorafenib + Linsitinib; first compound 8 µM
  relative viability: 0.739
Sorafenib + Tozasertib; first compound 0.08 µM
  relative viability: 0.532
Sorafenib + Tozasertib; first compound 0.253 µM
  relative viability: 0.489
Sorafenib + Tozasertib; first compound 2.53 µM
  relative viability: 0.41
Sorafenib + Tozasertib; first compound 8 µM
  relative viability: 0.221
Sorafenib + AZD7762; first compound 0.08 µM
  relative viability: 1.09
Sorafenib + AZD7762; first compound 0.253 µM
  relative viability: 0.781
Sorafenib + AZD7762; first compound 2.53 µM
  relative viability: 0.941
Sorafenib + AZD7762; first compound 8 µM
  relative viability: 0.897
Sorafenib + OSI-027; first compound 0.08 µM
  relative viability: 0.601
Sorafenib + OSI-027; first compound 0.253 µM
  relative viability: 0.502
Sorafenib + OSI-027; first compound 2.53 µM
  relative viability: 0.649
Sorafenib + OSI-027; first compound 8 µM
  relative viability: 0.397
